Measurements from US20250066351A1, “PYRAZOLO[1,5-A]PYRIDIN-2,3-YL AMIDES AS KV7 CHANNEL ACTIVATORS” (Biohaven Therapeutics Ltd., priority 2022, published 2025).

target: T1, hKv7.2/7.3 (Homo sapiens, UniProt O43525+O43526); assay: Kv7.2/7.3 Activation Assay, QPatch planar patch-clamp single concentration screen; type: cell-based; details: increase in current over baseline, Kv7.2/Kv7.3 co-expressing HEK cells, compound concentration 3 μM, steady-state current at end of 2 s pulse to −30 mV
T1 construct: host or cells: HEK cells, tetracycline-inducible expression
Method: The ability of compounds to potentiate K-currents in Kv7.2/7.3 containing HEK cells was assessed using planar patch-clamp on the QPatch automated screening platform.
Cell Line: The hKv7.2/7.3 cell line was obtained from Chantest (Cleveland, OH 44128) cat. #CT6147. These HEK cells will express the Kv7.2/7.3 ion channels when induced.
Cell Culture: Cells were maintained in a media containing DMEM/F12; 50/50 (GIBCO cat. #11330), 10% Fetal Bovine Serum (FBS) (GIBCO cat. #26140), 100 units/mL Penicillin-Streptomycin (GIBCO cat. #15140), 0.005 mg/mL Blasticidin (INVIVOGEN cat. #ant-bl-1), 0.5 mg/mL Geneticin (GIBCO cat. #10131), 0.1 mg/mL Zeocin (GIBCO cat. #R25001). Cells used in the electrophysiology assay were maintained in a media without Blasticidin, Geneticin and Zeocin for 2 days and channel expression was induced by adding tetracycline (BIOLINE cat. #BIO-87030) at a final concentration of […]. Cells were grown in T-175 flask to ˜75% confluency. Currents were recorded 24 hours after channel induction.
Compound Plates: Test compounds were prepared by performing serial dilutions on a Biomek NX^P (BECKMAN COULTER). Final dilutions were made in external recording solution with a final DMSO concentration of 0.1% DMSO. For single concentration screens each plate had 10 μM retigabine as a positive control and 0.1% DMSO as a negative control.
Electrophysiology: On the day of the experiment cells were washed with Hank's Balanced Salt Solution (HBBS) (GIBCO cat. #14175) and harvested with Tryple (GIBCO cat. #12604). Cells were then centrifuged at 2000 rpm for 5 minutes and resuspended in CHO—S-SFM (GIBCO cat. #12052) at […]. Cells were stirred for 30 minutes before experiments were started. External recording solution contained (in mM): NaCl (145), KCl (4), CaCl2 (2), MgCl2 (1), HEPES (10) and Glucose (10); pH was adjusted to 7.4 with NaOH and the osmolarity was adjusted to 300-305 mOsM with sucrose if necessary. Internal solution contained (in mM): KCl (125), KF (10), EGTA (5), Na2ATP (5), MgCl2 (3.2), HEPES (5); pH was adjusted to 7.2 with KOH and the osmolarity was adjusted to 298-302 mOsM with sucrose.
Potassium channel activity was measured on the QPatch HTX (Sophion Bioscience) using QPlates with 48-wells/plate. Each cell was taken as an independent experiment and only one compound was tested per well. Potassium channel activity was elicited by holding at −80 mV and stepping to −30 mV for 2 s followed by a 100 ms pulse to −120 mV.
Single concentration screen: Baseline conditions were obtained by recording 5 sweeps in the external solution only, this was repeated for three applications of the external solution. The effect of test compounds on elicited current was then assessed by recording 5 sweeps in the presence of a 3 μM compound solution. The steady-state current at the end of the 2 s pulse to −30 mV was measured to determine the fold increase from baseline.

QPatch Kv7.2/7.3 Activity	Compound
+ (2.0-3.99 (+))	C[C@](O)(CC(=O)Nc1nn2ccc(Cl)cc2c1-c1ccc(F)cc1)C(F)(F)F [Example 62, (S)-N-(5-chloro-3-(4-fluorophenyl)pyrazolo [1,5-a]pyridin-2-yl)-4,4,4-trifluoro-3-hydroxy-3-methylbutanamide]
+ (2.0-3.99 (+))	C[C@@](O)(CC(=O)Nc1nn2ccc(Cl)cc2c1-c1ccc(F)cc1)C(F)(F)F [Example 63, (R)-N-(5-chloro-3-(4-fluorophenyl)pyrazolo [1,5-a]pyridin-2-yl)-4,4,4-trifluoro-3-hydroxy-3-methylbutanamide]
+++ (>6-fold (+++))	CC(C)(F)CC(=O)Nc1nn2ccc(C(F)(F)F)cc2c1C1CCC1 [Example 64, N-(3-cyclobutyl-5-(trifluoromethyl)pyrazolo [1,5-a]pyridin-2-yl)-3-fluoro-3-methylbutanamide]
++ (4.0-5.99 (++))	CC(C)(C)CC(=O)Nc1nn2c(C(F)F)cccc2c1C1CCC1 [Example 65, N-(3-cyclobutyl-7-(difluoromethyl)pyrazolo [1,5-a]pyridin-2-yl)-3,3-dimethylbutanamide]
− (<1.2-fold (−))	CC(C)(O)CC(=O)Nc1nn2c(-c3ccc(F)cc3)cccc2c1C1CCC1 [Example 66, N-(3-cyclobutyl-7-(4-fluorophenyl)pyrazolo [1,5-a]pyridin-2-yl)-3-hydroxy-3-methylbutanamide]
− (<1.2-fold (−))	Cn1ccc(-c2c(NC(=O)CC(C)(C)O)nn3ccc(C(F)(F)F)cc23)n1 [Example 67, 3-hydroxy-3-methyl-N-(3-(1-methyl-1H-pyrazol-3-yl)-5-(trifluoromethyl)pyrazolo [1,5-a]pyridin-2-yl)butanamide]
+ (2.0-3.99 (+))	CC(C)(O)CC(=O)Nc1nn2ccc(Cl)cc2c1-c1ccc(OC(F)(F)F)cc1 [Example 68, N-(5-chloro-3-(4-(trifluoromethoxy)phenyl)pyrazolo[1,5-a]pyridin-2-yl)-3-hydroxy-3-methylbutanamide]
+ (2.0-3.99 (+))	CC(C)(C)OC(=O)Nc1nn2ccc(Br)cc2c1C1CCC1 [Example 69, tert-butyl (5-bromo-3-cyclobutylpyrazolo[1,5-a]pyridin-2-yl)carbamate]
+ (2.0-3.99 (+))	CC(C)(O)CC(=O)Nc1nn2c(C3CC3)cccc2c1C1CCC1 [Example 70, N-(3-cyclobutyl-7-cyclopropylpyrazolo [1,5-a]pyridin-2-yl)-3-hydroxy-3-methylbutanamide]
+ (2.0-3.99 (+))	C[C@](O)(CC(=O)Nc1nn2ccc(Cl)cc2c1-c1ccc(F)cc1)c1ccccc1 [Example 71, (S)-N-(5-chloro-3-(4-fluorophenyl)pyrazolo [1,5-a]pyridin-2-yl)-3-hydroxy-3-phenylbutanamide]
+/− (1.2-1.99-fold (+/−))	CC(C)(O)CC(=O)Nc1nn2c(C(F)F)cccc2c1C1CCC1 [Example 72, N-(3-cyclobutyl-7-(difluoromethyl)pyrazolo [1,5-a]pyridin-2-yl)-3-hydroxy-3-methylbutanamide]
− (<1.2-fold (−))	C[C@@](O)(CC(=O)Nc1nn2cccc(F)c2c1C1CCC1)c1ccccn1 [Example 73, (R)-N-(3-cyclobutyl-4-fluoropyrazolo [1,5-a]pyridin-2-yl)-3-hydroxy-3-(pyridin-2-yl)butanamide]
++ (4.0-5.99 (++))	CC(C)(C)CC(=O)Nc1nn2ccc(C3(O)CCC3)cc2c1C1CCC1 [Example 74, N-(3-cyclobutyl-5-(1-hydroxycyclobutyl)pyrazolo[1,5-a]pyridin-2-yl)-3,3-dimethylbutanamide]
− (<1.2-fold (−))	CC(C)(C)CC(=O)Nc1nn2c(C(F)(F)F)cccc2c1-c1ccc(F)cc1 [Example 75, N-(3-(4-fluorophenyl)-7-(trifluoromethyl)pyrazolo [1,5-a]pyridin-2-yl)-3,3-dimethylbutanamide]
+ (2.0-3.99 (+))	CC(C)(O)CC(=O)Nc1nn2c(C(F)(F)F)cccc2c1-c1ccc(F)cc1 [Example 76, N-(3-(4-fluorophenyl)-7-(trifluoromethyl)pyrazolo [1,5-a]pyridin-2-yl)-3-hydroxy-3-methylbutanamide]
+ (2.0-3.99 (+))	CCC(O)(CC)CC(=O)Nc1nn2ccc(C(F)(F)F)cc2c1-c1ccc(F)cc1 [Example 77, 3-ethyl-N-(3-(4-fluorophenyl)-5-(trifluoromethyl)pyrazolo [1,5-a]pyridin-2-yl)-3-hydroxypentanamide]
+ (2.0-3.99 (+))	C[C@](O)(CC(=O)Nc1nn2c(C(F)(F)F)cccc2c1-c1ccc(F)cc1)c1ccccc1 [Example 78, (S)-N-(3-(4-fluorophenyl)-7-(trifluoromethyl)pyrazolo [1,5-a]pyridin-2-yl)-3-hydroxy-3-phenylbutanamide]
++ (4.0-5.99 (++))	CC(C)(C)CC(=O)Nc1nn2ccc(C(C)(C)O)cc2c1-c1ccc(F)cc1 [Example 79, N-(3-(4-fluorophenyl)-5-(2-hydroxypropan-2-yl)pyrazolo[1,5-a]pyridin-2-yl)-3,3-dimethylbutanamide]
− (<1.2-fold (−))	CC(C)(C)CC(=O)Nc1nn2ccc(C(F)(F)F)cc2c1C#N [Example 80, N-(3-cyano-5-(trifluoromethyl)pyrazolo [1,5-a]pyridin-2-yl)-3,3-dimethylbutanamide]
++ (4.0-5.99 (++))	CC(C)(C)CC(=O)Nc1nn2c(Cl)cc(Cl)cc2c1-c1ccc(F)cc1 [Example 81, N-(5,7-dichloro-3-(4-fluorophenyl)pyrazolo [1,5-a]pyridin-2-yl)-3,3-dimethylbutanamide]
+++ (>6-fold (+++))	CC(C)(C)CC(=O)Nc1nn2ccc(Cl)cc2c1-c1ccc(F)cc1 [Example 82, N-(5-chloro-3-(4-fluorophenyl)pyrazolo [1,5-a]pyridin-2-yl)-3,3-dimethylbutanamide]
+ (2.0-3.99 (+))	O=C(CC(O)(CF)CF)Nc1nn2ccc(C(F)(F)F)cc2c1C1CCC1 [Example 83, N-(3-cyclobutyl-5-(trifluoromethyl)pyrazolo[1,5-a]pyridin-2-yl)-4-fluoro-3-(fluoromethyl)-3-hydroxybutanamide]
+/− (1.2-1.99-fold (+/−))	CC(C)(C)CC(=O)NNc1nn2ccc(C(F)(F)F)cc2c1-c1ccc(F)cc1 [Example 84, N′-(3-(4-fluorophenyl)-5-(trifluoromethyl)pyrazolo [1,5-a]pyridin-2-yl)-3,3-dimethylbutanehydrazide]
− (<1.2-fold (−))	CC(C)(O)CC(=O)NNc1nn2ccc(C(F)(F)F)cc2c1-c1ccc(F)cc1 [Example 85, N′-(3-(4-fluorophenyl)-5-(trifluoromethyl)pyrazolo [1,5-a]pyridin-2-yl)-3-hydroxy-3-methylbutanehydrazide]
+/− (1.2-1.99-fold (+/−))	CC(C)(C)CC(=O)Nc1nn2ccc(C(F)(F)F)cc2c1C(C)(C)O [Example 86, N-(3-(2-hydroxypropan-2-yl)-5-(trifluoromethyl)pyrazolo[1,5-a]pyridin-2-yl)-3,3-dimethylbutanamide]
+ (2.0-3.99 (+))	C[C@@](O)(CC(=O)Nc1nn2ccc(C(F)(F)F)cc2c1C1CCC1)C1CC1 [Example 87, (R)-N-(3-cyclobutyl-5-(trifluoromethyl)pyrazolo[1,5-a]pyridin-2-yl)-3-cyclopropyl-3-hydroxybutanamide]
